Data: patent publication US20080039527A1, “Calixarenes as Inhibitors of Protein Kinase B” (Imperial College Innovations Ltd., priority 2003, published 2008)
Where two headings read alike, the source gives them in different places.

What was measured:
[1] = Dilution of compounds into water (observed solubility)
From the text: The monomer, dimer and trimer of compound 48/80 were received as synthesised from Macba Numbere at UCL.

[2] = test system: PKB Ser473 phosphorylation; experiment: PKB Ser473 activation synergy experiments (Western blot, NIH3T3 cells primed with NCS); type: cell-based; conditions: for phosphorylation of PKB (Western blot 1, FIG. 1): NIH3T3 cells, 1% NCS 20 minutes then compound 15 minutes
From the text: PKB is a protein downsteam effector of PI3K, and becomes phosphorylated on (residues required for its activity) in response to the activation of PI3K. Natal Calf Serum (NCS) is a stimulator of PI3K and thus subsequently results in PKB activation. Therefore the positive control used in experiments is 10% serum and a negative control used is provided with no serum at all.
Compound 48/80 is the condensation product of N-methyl-p-methoxyphenethylamine and formaldehyde and is a mixture of cationic amphiphiles of varying degrees of polymerisation.
In a typical method, NIH3T3 cells were grown in media (GibcoBRL) containing 10% NCS to near confluency in six well plates. The cells were starved using 0.5% serum for 2-3 days. The media was then removed and replaced with serum free media for 15 minutes. Subsequently, 1% NCS was added to reaction wells, and 0%, 1% and 10% NCS to control wells. After 20 minutes incubation, then compound was added, and the wells incubated for a further 15 minutes. Media was removed and sample buffer was added and the cells lysed, boiled, centrifuged.
Samples were subjected to gel electrophoresis by 10% SDS-PAGE and then Western blotted on to PVDF membrane (Biorad) according to standard protocols. Western blots were probed using primary antibodies against PKB purchased from New England Biolabs and secondary antibodies of goat anti-rabbit IgG coupled to horseradish peroxidase (Amersham). The membranes were then developed using a freshly prepared ECL solution according to standard protocols.

[3] = diluted into water initially, afterwards into DMSO

Compound: CNCCc1ccc(OC)cc1 [monomer, N-methyl-p-methoxyphenethylamine]
- solubility on dilution into water [1, 3]: solubility problems
- overall effect on PKB (conclusion from these studies) [2]: activating species
- PKB Ser473 phosphorylation (Western blot 3) ([2]; 5 μg/mL experiment, controls contain DMSO at 2.5%): slight activation above control levels

Compound: CNCCc1ccc(OC)c(Cc2cc(CCNC)cc(Cc3cc(CCNC)ccc3OC)c2OC)c1.Cl.Cl.Cl [trimer]
- solubility on dilution into water [1]: solubility problems
- overall effect on PKB (conclusion from these studies) [2]: inhibiting species
- phosphorylation of PKB (Western blot 1, FIG. 1) ([2]; 3 μg/mL): just below that of 1% serum activation
- phosphorylation of PKB (Western blot 1, FIG. 1) ([2]; 6 μg/mL): almost completely inhibited

Compound: Benzeneethanamine-3,3′-methylenebis(4-methoxy-N-methyl) dihydrochloride [dimer]
- solubility on dilution into water [1, 3]: solubility problems
